Data: ChEMBL document CHEMBL1201862, “PubChem BioAssay data set” (2004)
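Values below derive from 48-hour exposures of cells grown in 96-well plates, with endpoints linearly interpolated between the two concentrations bracketing the appropriate inhibition level. The concentration for 50% growth inhibition is given as GI50.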 Calls of active or inactive are those of the source. Rule as the data show it: active = GI50 up to about 1.1 µM and inactive = higher. Peptide text beside a SMILES is read from it. * marks the point of attachment. Trt = c1ccc(C(c2ccccc2)(c2ccccc2)*)cc1; Cbz = O=C(OCc1ccccc1)*

Key:
Experiment in all cases: inhibition of tumour cell growth, NCI panel, 48 h
[1] = tested on: OVCAR-5
[2] = tested on: MDA-N
[3] = tested on: HL-60
[4] = tested on: SK-OV-3
[5] = tested on: UACC-62
[6] = tested on: PC-3
[7] = tested on: A549
[8] = tested on: SK-MEL-2
[9] = tested on: M14
[10] = tested on: 786-0
[11] = tested on: COLO 205
[12] = tested on: MDA-MB-435
[13] = tested on: SNB-19
[14] = tested on: U-251
[15] = tested on: SF-295
[16] = tested on: SF-539
[17] = tested on: NCI/ADR-RES
[18] = tested on: SNB-75
[19] = tested on: UO-31

Compound	GI50 [1]	GI50 [2]	GI50 [3]	GI50 [4]	GI50 [5]	GI50 [6]	GI50 [7]	GI50 [8]	GI50 [9]	GI50 [10]	GI50 [11]	GI50 [12]	GI50 [13]	GI50 [14]	GI50 [15]	GI50 [16]	GI50 [17]	GI50 [18]	GI50 [19]
CC(=O)c1cnc2oc3ccc(O)cc3c2c1-c1ccccc1	71.6 µM (inactive)	40.1 µM (inactive)	37.5 µM (inactive)	14 µM (inactive)	20.5 µM (inactive)	21.4 µM (inactive)	47.1 µM (inactive)	22.6 µM (inactive)	> 100 µM (inactive)	39.4 µM (inactive)	30.3 µM (inactive)	64.9 µM (inactive)	37.3 µM (inactive)	52.4 µM (inactive)	30 µM (inactive)	15 µM (inactive)	–	–	–
CCCCN(CCCC)CCC(O)c1cc2c(Cl)cc(Cl)cc2c2cc(C(F)(F)F)ccc12 (configuration not stated)	12.9 µM (inactive)	12.7 µM (inactive)	5.9 µM (inactive)	14 µM (inactive)	15 µM (inactive)	10.1 µM (inactive)	–	16.1 µM (inactive)	8.93 µM (inactive)	12.9 µM (inactive)	10.8 µM (inactive)	12.6 µM (inactive)	19.1 µM (inactive)	14.4 µM (inactive)	12.4 µM (inactive)	9.4 µM (inactive)	12.1 µM (inactive)	11.7 µM (inactive)	4.2 µM (inactive)
CCOC(=O)N(C)C(=C(F)F)C(F)(F)F	35.5 µM (inactive)	18.5 µM (inactive)	20.4 µM (inactive)	36 µM (inactive)	> 10 µM (inactive)	30.9 µM (inactive)	29 µM (inactive)	16 µM (inactive)	16.8 µM (inactive)	21.7 µM (inactive)	21 µM (inactive)	22.8 µM (inactive)	–	30.4 µM (inactive)	57.5 µM (inactive)	24.5 µM (inactive)	34.6 µM (inactive)	29.5 µM (inactive)	32.7 µM (inactive)
Clc1cc(Cl)c2c(Cl)cc(Cl)c3c2c1N=S=N3	> 100 µM (inactive)	–	94.6 µM (inactive)	> 100 µM (inactive)	62.5 µM (inactive)	–	> 100 µM (inactive)	> 100 µM (inactive)	> 100 µM (inactive)	> 100 µM (inactive)	> 100 µM (inactive)	–	> 100 µM (inactive)	> 100 µM (inactive)	> 100 µM (inactive)	> 100 µM (inactive)	–	> 100 µM (inactive)	> 100 µM (inactive)
Cc1cc(C)c2c(c1)N[S@@](=O)S2	30.6 µM (inactive)	–	26.4 µM (inactive)	31.4 µM (inactive)	18.6 µM (inactive)	–	27.9 µM (inactive)	22.3 µM (inactive)	17 µM (inactive)	15 µM (inactive)	18.2 µM (inactive)	–	30.8 µM (inactive)	16.8 µM (inactive)	39.7 µM (inactive)	26.1 µM (inactive)	–	32.5 µM (inactive)	23 µM (inactive)
CC1=C(C)CC2(CCCCC2=O)[S+]([O-])C1 (configuration not stated)	> 100 µM (inactive)	–	> 100 µM (inactive)	> 100 µM (inactive)	> 100 µM (inactive)	–	> 100 µM (inactive)	> 100 µM (inactive)	> 100 µM (inactive)	> 100 µM (inactive)	> 100 µM (inactive)	–	> 100 µM (inactive)	> 100 µM (inactive)	> 100 µM (inactive)	> 100 µM (inactive)	–	> 100 µM (inactive)	> 100 µM (inactive)
O=C1CCCc2cc3c(cc21)CC1(Cc2ccccc2C1)C3	7.66 µM (inactive)	1.42 µM (inactive)	1.84 µM (inactive)	5.11 µM (inactive)	8.91 µM (inactive)	> 100 µM (inactive)	6.17 µM (inactive)	15 µM (inactive)	4.33 µM (inactive)	6.28 µM (inactive)	1.93 µM (inactive)	1.91 µM (inactive)	–	5.38 µM (inactive)	4.03 µM (inactive)	3.89 µM (inactive)	6 µM (inactive)	0.106 µM (active)	1.46 µM (inactive)
COC(=O)c1ccc2c(c1)CC1(C2)Cc2ccc3c(c2C1)CCC3 (configuration not stated)	> 100 µM (inactive)	3.63 µM (inactive)	14.8 µM (inactive)	13.6 µM (inactive)	14.6 µM (inactive)	6.98 µM (inactive)	29.9 µM (inactive)	–	0.574 µM (active)	23.2 µM (inactive)	9.84 µM (inactive)	3.25 µM (inactive)	33 µM (inactive)	28.7 µM (inactive)	24.9 µM (inactive)	47.8 µM (inactive)	–	33.3 µM (inactive)	–
COC1CCC(=O)N1CN(C(C)=O)c1ccc(C)cc1 (configuration not stated)	> 100 µM (inactive)	> 100 µM (inactive)	–	> 100 µM (inactive)	> 100 µM (inactive)	> 100 µM (inactive)	> 100 µM (inactive)	> 100 µM (inactive)	> 100 µM (inactive)	> 100 µM (inactive)	> 100 µM (inactive)	> 100 µM (inactive)	> 100 µM (inactive)	> 100 µM (inactive)	> 100 µM (inactive)	> 100 µM (inactive)	> 100 µM (inactive)	> 100 µM (inactive)	> 100 µM (inactive)
c1cc2c(c(NC3=NCCO3)c1)CCC2	> 100 µM (inactive)	84.5 µM (inactive)	60.1 µM (inactive)	> 100 µM (inactive)	> 100 µM (inactive)	67 µM (inactive)	> 100 µM (inactive)	> 100 µM (inactive)	> 100 µM (inactive)	> 100 µM (inactive)	> 100 µM (inactive)	85.7 µM (inactive)	> 100 µM (inactive)	> 100 µM (inactive)	> 100 µM (inactive)	> 100 µM (inactive)	> 100 µM (inactive)	–	> 100 µM (inactive)
COC(=O)C(CO)NC(=O)C(CSC(c1ccccc1)(c1ccccc1)c1ccccc1)NC(=O)OCc1ccccc1 (configuration not stated) (Cbz-Cys(Trt)-Ser-OMe; configuration not given here)	17.7 µM (inactive)	–	5.75 µM (inactive)	24.6 µM (inactive)	12.1 µM (inactive)	12.3 µM (inactive)	13.4 µM (inactive)	16.9 µM (inactive)	19.4 µM (inactive)	20.9 µM (inactive)	15.6 µM (inactive)	15.2 µM (inactive)	19.5 µM (inactive)	16.7 µM (inactive)	17.1 µM (inactive)	12.1 µM (inactive)	16.8 µM (inactive)	17.6 µM (inactive)	14.5 µM (inactive)
COc1cc(/C=C/C(=O)O)ccc1O [FERULATE]	> 100 µM (inactive)	> 100 µM (inactive)	> 100 µM (inactive)	–	–	> 100 µM (inactive)	> 100 µM (inactive)	> 100 µM (inactive)	> 100 µM (inactive)	> 100 µM (inactive)	> 100 µM (inactive)	> 100 µM (inactive)	> 100 µM (inactive)	> 100 µM (inactive)	> 100 µM (inactive)	> 100 µM (inactive)	> 100 µM (inactive)	> 100 µM (inactive)	> 100 µM (inactive)
